US20240376098A1, “METHODS OF TREATMENT USING BCN057, BCN077 AND ANALOGS” (BCN Biosciences L.L.C., priority 2021, published 2024)

Key:
[1] = system: human KRAS G12D mutant colorectal cancer cell line LS174T; test: Viability of LS174T colorectal cancer cells; format: cell-based; conditions: viability versus concentration
Text: FIG. 9 is a graph of viability versus concentration of BCN077.

[2] = system: KRAS mutant G12D invasive pancreatic cancer cell lines; test: Proliferation of pancreatic cancer cell lines with analogues of BCN057; format: cell-based
[3] = system: PD-1 expression on human T-lymphocytes; test: Western blot of PD-1 on T-lymphocytes co-cultured with Panc-1 cells; format: cell-based; conditions: 15 minutes to 24 hours
Procedure: Cell lines and cell culture: Panc-1 cells were cultured in DMEM medium supplemented with 10% Fetal Bovine Serum and maintained at 37° C.5% CO2. Human Peripheral Blood Pan-T Cells were cultured in serum free T cells expansion media with 10 ng/ml of rhIL-2, T-cell activator and expanded as per the manufacturer instructions. Panc-1 cells and T-Cells were grown and expanded separately in T75 flasks. For co-culture experiments with Panc-1 cell, 2.5 million T-cells per well were plated in the well using a 6 well plate. 2.5 million Panc-1 Cells were plated in the thinsert which was placed into the well of the 6 well plate in order to have the cells physically separated but share media. The cells were incubated for 24 hours at 37° C., 5% CO2. At 24 hours the media was replaced with media containing vehicle, or 10 uM BCN057 and were incubated for the following timepoints: 1 hr, 6 hr, 12 hr, 24 hrs. The Panc-1 cells were removed by gently scraping the cells from the thinsert.
Western Blot: Cells were harvested and lysed in cell lysis buffer on ice for 15 minutes and the lysate was centrifuged at 13,000 rpm at 4° C. for 10 minutes. The supernatant was transferred into a new tube for BCA protein quantification assay (Thermo Fisher Scientific) and the samples were normalized. 3× loading buffer (Cell Signaling) was added the protein sample and boiled for 5 minutes. The samples were used for SDS-PAGE analysis and transferred to nitrocellulose membrane. The membrane was blocked with 5% BSA at room temperature for 1 hour and incubated with primary antibody at 4° C. overnight. The membrane was washed with 1×TBST 5 minutes for 3 times and incubated with horseradish peroxidase-conjugated secondary antibody for 1 hour at room temperature. The protein was visualized by SuperSignal West Pico Stable Peroxide Solution (Thermo Fisher Scientific). The blot was visualized by chemiluminescence using a BioRad Versadoc Imaging System.
BCN057 and Immune Checkpoint blockade: An emerging method of treatment for many forms of cancer, including PDAC, is immune checkpoint inhibitors. […]

Lgr5+ ISCs = test: Lgr5+ intestinal stem cells in 5FU treated Lgr5-Cre-ERT-GFP mice; format: in vivo; conditions: 5FU treated mice, confocal microscopic imaging
Procedure: 5FU is a component of FOLFIRINOX and the active agent metabolized from Capecitabine (Xeloda®). To, examine the effect of BCN057 against chemo induced toxicity in Lgr5+ ISCs, Lgr5-Cre-ERT-GFP mice were pre-treated with 5FU as reported and then subjected to BCN057 treatment.
Stains of GI crypts with green=LGR5+ stem cells. Mice were treated with 5FU and 5FU+BCN057 for 5 days. BCN057 was administered for two extra days after 5FU treatment. Small intestine samples were harvested and stained for LGR5 at 3 days after the last 5FU injection. FIG. 5D is a histogram of the quantitation by % of LGR5+ cells remaining in […] sections at the crypt base showing prevention of 5-FU induced apoptosis in LGR5+ stem cells in GI.

[4] = system: pancreatic ductal adenocarcinoma cells (AsPC-1, BxPC-3, MIA PaCa-2 and Panc-1); conditions: range over AsPC-1, BxPC-3, MIA PaCa-2 and Panc-1; limits printed in nM and μM; cited from earlier work

| Compound | Proliferation of KRAS mutant G12D invasive pancreatic cancer cell lines [2] | PD1 expression in co-culture of T-cells and Panc1 cells [3] | further results |
| --- | --- | --- | --- |
| COc1ccc2cc(-c3nc4c(C)cccn4c3NC(=O)c3cccc(F)c3)c(=O)[nH]c2c1 [BCN077] | inhibition of proliferation |  | Activity on viability of LS174T [1]: potent activity |
| CNCCC(=O)Nc1c(-c2cc3ccc(OC)cc3[nH]c2=O)nc2c(C)cccn12.Cl [BCN076] | inhibition of proliferation | inhibit PD1 expression over time |  |
| O=c1[nH]cc(F)c(=O)[nH]1 [5FU, 5-Fluorouracil, reference compound] |  |  | Lgr5+ ISCs in jejunal section (Lgr5+ ISCs): significant loss of Lgr5+ ISCs |
| CONCCC(=O)Nc1c(-c2cc3ccc(OC)cc3[nH]c2=O)nc2c(C)cccn12 [BCN036] | inhibition of proliferation | inhibit PD1 expression over time |  |
| Nc1ccn([C@@H]2O[C@H](CO)[C@@H](O)C2(F)F)c(=O)n1 [gemcitabine] |  |  | IC50 [4]: 494 to 23900 nM |
